Measured values taken from patent US5583104A, “Treatment of proliferation of bile duct epithelium” (Mayo Foundation for Medical Research and Education, priority 1993, dated 1996).

Test system: human cholangiocarcinoma cell line SK-ChA-1
Assay: Anti-proliferative MTT assay on human cholangiocarcinoma cell line SK-ChA-1
Assay type: cell-based
Conditions: for inhibiting the growth of the human cholangiocarcinoma cell line: FIGS. 1 and 2, both experiments, non-dose dependent; for Percent Protection, Day 8: first experiment (Table I); for Percent Protection Day 4: second experiment (Table II)
Experimental: The human cholangiocarcinoma cell line SK-ChA-1 was grown from malignant ascites of a patient with primary adenocarcinoma of the extrahepatic biliary tree. See Knuth, et al. J. of Hepatology 1:579 (1985), hereby incorporated by reference.
SK-ChA-1 cells were plated (100 μl) into 96-well culture plates (Falcon) at a density of 50,000 cells/ml in Dulbecco's modified Eagle's medium (DMEM/HAMSF12 (50:50)) with 2% fetal calf serum (FCS, Hyclone) and antibiotics (penicillin 100 IU/ml, streptomycin 100 μg/ml and amphotericin B 2.5 μg/ml). After 18 hours, the medium was replaced with fresh medium with or without the two test drugs, natural somatostatin-14 and the somatostatin agonist octreotide. The experiments were performed in triplicate. Wells without the addition of any test drug served as normal controls. All media, with the appropriate concentration of test drug, were changed every two days.
The amount of viable cells were assayed every two days using 3-(4,5-[…])-2,5-diphenyl tetrazolium (MTT) according to method published by Tada, J. Immunol. Meth. 93:157 (1986), hereby incorporated by reference. Optical density was read by a 96-well automatic microplate reader (molecular Devices) at a test wavelength of 570 nm and a reference wavelength of 630 nm. An experiment had validated the correlation of the MTT assay (r=0.975, p=0.004) with a wide range of cell concentrations (3,000 to 330,000 cells/ml) counted with the hemocytometer. Cell proliferation curves with respect to time and test drug concentration were plotted with control wells as the baseline for comparison.
Two experiments were performed using this assay. […] The second experiment was performed at concentrations of 10^-5 M to 10^-10 M (in one log increments) and assayed every two days until day 8.

[1] = drug concentration 1 × 10^-5 M, MTT viable cells vs control wells
[2] = drug concentration 1 × 10^-10 M

Compound	inhibiting the growth of the human cholangiocarcinoma cell line	Percent Protection, Day 8 [1] [%]	Percent Protection, Day 8 (drug concentration 1 × 10^-6 M) [%]	Percent Protection, Day 8 (drug concentration 1 × 10^-7 M) [%]	Percent Protection, Day 8 (drug concentration 1 × 10^-8 M) [%]	Percent Protection Day 4 (drug concentration 1 × 10^-5 M) [%]	Percent Protection Day 4 (drug concentration 1 × 10^-6 M) [%]	Percent Protection Day 4 (drug concentration 1 × 10^-7 M) [%]	Percent Protection Day 4 (drug concentration 1 × 10^-8 M) [%]	Percent Protection Day 4 (drug concentration 1 × 10^-9 M) [%]	Percent Protection Day 4 [2] [%]
C[C@@H](O)[C@@H]1NC(=O)[C@H](CCCCN)NC(=O)[C@@H](Cc2c[nH]c3ccccc23)NC(=O)[C@H](Cc2ccccc2)NC(=O)[C@@H](NC(=O)[C@H](N)Cc2ccccc2)CSSC[C@@H](C(=O)N[C@H](CO)[C@@H](C)O)NC1=O [Octreotide, H-D-Phe-Cys-Phe-D-Trp-Lys-Thr-Cys-threoninol]	effective in inhibiting the growth	79.1	92.2	78.4	61.0	62.6	52.9	44.4	46.8	61.7	50.4
C[C@H](N)C(=O)NCC(=O)N[C@H]1CSSC[C@@H](C(=O)O)NC(=O)[C@H](CO)NC(=O)[C@H]([C@@H](C)O)NC(=O)[C@H](Cc2ccccc2)NC(=O)[C@H]([C@@H](C)O)NC(=O)[C@H](CCCCN)NC(=O)[C@H](Cc2c[nH]c3ccccc23)NC(=O)[C@H](Cc2ccccc2)NC(=O)[C@H](Cc2ccccc2)NC(=O)[C@H](CC(N)=O)NC(=O)[C@H](CCCCN)NC1=O [Somatostatin]	effective in inhibiting the growth	94.9	66.8	89.9	–	54.3	47.5	42.6	50.2	50.4	62.3
